From patent US9149475B2, “Protein kinase C inhibitors and uses thereof” (Rigel Pharmaceuticals, Inc., priority 2009, dated 2015)

test system: Human primary T cells; experiment: IL-2 ELISA, human primary T cell, anti-CD3+CD28+ (whole cell assay); assay type: cell-based; settings: Homo sapiens, T-cell, 24 h, human primary T cells stimulated with anti-CD3 + anti-CD28, 24 hours
Method in brief: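 PBMC-derived T cells, pre-expanded on αCD3/αCD28 with IL-2 and then washed free of IL-2, were preincubated with compound for 1 hr at 37° C (100,000 cells/well). They were then stimulated on 1 μg/ml αCD3 plus 5 μg/ml αCD28 for 24 h, and supernatant IL-2 was measured by ELISA. The counter-assay used 0.5 ng/ml PMA plus 0.1 μM ionomycin instead.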

Row | IC50 | Structure (SMILES)
1 | < 250 nM | CN1C(C)(C)CC(Nc2nc(Nc3ccc(OC4CCN(CCF)CC4)c(OC(F)F)c3)ncc2F)CC1(C)C [III-51, N2-(3-(difluoromethoxy)-4-(1-(2-fluoroethyl)piperidin-4-yloxy)phenyl)-5-fluoro-N4-(1,2,2,6,6-pentamethylpiperidin-4-yl)pyrimidine-2,4-diamine]
2 | < 250 nM | [2H]C([2H])([2H])N1C(C)(C)CC(Nc2nc(Nc3ccc(OC4CCN(C(C)C)CC4)c(OC(F)F)c3)ncc2F)CC1(C)C [III-110, N2-(3-(difluoromethoxy)-4-(1-isopropylpiperidin-4-yloxy)phenyl)-5-fluoro-N4-(1-trideuteromethyl-2,2,6,6-tetramethylpiperidin-4-yl)pyrimidine-2,4-diamine]
3 | 250 to 500 nM | Cc1ccc(Nc2ncc(F)c(NC3CC(C)N(C4CC4)C(C)C3)n2)cc1-n1cnnn1 (stereo not drawn) [III-6, N^4-(1-cyclopropyl-2,6-dimethylpiperidin-4-yl)-5-fluoro-N2-(4-methyl-3-(1H-tetrazol-1-yl)phenyl)pyrimidine-2,4-diamine]
4 | 250 to 500 nM | CN1C(C)(C)CC(Nc2nc(Nc3ccc(OC4CCOCC4)c(-c4nnnn4C)c3)ncc2F)CC1(C)C [III-125, 5-fluoro-N2-(3-(1-methyl-1H-tetrazol-5-yl)-4-(tetrahydro-2H-pyran-4-yloxy)phenyl)-N4-(1,2,2,6,6-pentamethylpiperidin-4-yl)pyrimidine-2,4-diamine]
5 | 500 to 1000 nM | CC1(C)CC(Nc2nc(Nc3ccc(Oc4ccncc4)c(OC(F)F)c3)ncc2C#N)CC(C)(C)N1 [Compound I-58, 4-(2,2,6,6-tetramethylpiperidin-4-ylamino)-2-(3-(difluoromethoxy)-4-(pyridin-4-yloxy)phenylamino)pyrimidine-5-carbonitrile]
6 | 500 to 1000 nM | CN1C(C)(C)CC(Nc2nc(Nc3cc(F)c(OC4CCOCC4)c(F)c3)ncc2F)CC1(C)C [III-25, N2-(3,5-difluoro-4-(tetrahydro-2H-pyran-4-yloxy)phenyl)-5-fluoro-N4-(1,2,2,6,6-pentamethylpiperidin-4-yl)pyrimidine-2,4-diamine]
7 | 500 to 1000 nM | CC(=O)N1CCC(Oc2ccc(Nc3ncc(F)c(NC4CC(C)(C)NC(C)(C)C4)n3)cc2OC(F)F)CC1 [III-44, 1-(4-(2-(difluoromethoxy)-4-(5-fluoro-4-(2,2,6,6-tetramethylpiperidin-4-ylamino)pyrimidin-2-ylamino)phenoxy)piperidin-1-yl)ethanone]
8 | 250 to 500 nM | CC1(C)CC(Nc2nc(Nc3ccc(OC4CCOCC4)c(OC(F)F)c3)ncc2F)CC(C)(C)N1 [III-23, N2-(3-(difluoromethoxy)-4-(tetrahydro-2H-pyran-4-yloxy)phenyl)-5-fluoro-N4-(2,2,6,6-tetramethylpiperidin-4-yl)pyrimidine-2,4-diamine]
9 | > 1000 nM | CN1C(C)(C)CC(Nc2nc(Nc3ccc(Oc4ccncc4)c(OC(F)F)c3)ncc2F)CC1(C)C [Compound I-43, N2-(3-(difluoromethoxy)-4-(pyridin-4-yloxy)phenyl)-5-fluoro-N4-(1,2,2,6,6-pentamethylpiperidin-4-yl)pyrimidine-2,4-diamine]
10 | 250 to 500 nM | CN1C(C)(C)CC(Nc2nc(Nc3ccc(OCCn4ccnn4)c(OC(F)F)c3)ncc2C#N)CC1(C)C [Compound I-55, 4-(1,2,2,6,6-pentamethylpiperidin-4-ylamino)-2-(4-(2-(1H-1,2,3-triazol-1-yl)ethoxy)-3-(difluoromethoxy)phenylamino)pyrimidine-5-carbonitrile]
11 | > 1000 nM | Cc1nnnn1-c1cc(Nc2ncc(F)c(NC3CC(C)(C)N(CC4CC4)C(C)(C)C3)n2)ccc1F [Compound I-11, N4-(1-(cyclopropylmethyl)-2,2,6,6-tetramethylpiperidin-4-yl)-5-fluoro-N2-(4-fluoro-3-(5-methyl-1H-tetrazol-1-yl)phenyl)pyrimidine-2,4-diamine]
12 | < 250 nM | Cn1nnnc1-c1cc(Cl)cc(Nc2ncc(F)c(NC3CC(C)(C)NC(C)(C)C3)n2)c1 [III-134, N2-(3-chloro-5-(1-methyl-1H-tetrazol-5-yl)phenyl)-5-fluoro-N4-(2,2,6,6-tetramethylpiperidin-4-yl)pyrimidine-2,4-diamine]
13 | 250 to 500 nM | CC1(C)CC(Nc2nc(Nc3ccc(Oc4cccnc4)c(OC(F)F)c3)ncc2F)CC(C)(C)N1 [Compound I-45, N2-(3-(difluoromethoxy)-4-(pyridin-3-yloxy)phenyl)-5-fluoro-N4-(2,2,6,6-tetramethylpiperidin-4-yl)pyrimidine-2,4-diamine]
14 | < 250 nM | CN1C(C)(C)CC(Nc2nc(Nc3cccc(-c4nnnn4C4CC4)c3)ncc2F)CC1(C)C [III-72, N2-(3-(1-cyclopropyl-1H-tetrazol-5-yl)phenyl)-5-fluoro-N4-(1,2,2,6,6-pentamethylpiperidin-4-yl)pyrimidine-2,4-diamine]
15 | > 1000 nM | CC1(C)CC(Nc2nc(Nc3cc(F)cc(OCCn4ccnn4)c3)ncc2C#N)CC(C)(C)N1 [Compound I-17, 4-(2,2,6,6-tetramethylpiperidin-4-ylamino)-2-(3-(2-(1H-1,2,3-triazol-1-yl)ethoxy)-5-fluorophenylamino)pyrimidine-5-carbonitrile]
16 | < 250 nM | Cc1nnnn1-c1cccc(Nc2ncc(F)c(NC3CC(C)N(C4CC4)C(C)C3)n2)c1 (stereo not drawn) [III-8, N^4-(1-cyclopropyl-2,6-dimethylpiperidin-4-yl)-5-fluoro-N2-(3-(5-methyl-1H-tetrazol-1-yl)phenyl)pyrimidine-2,4-diamine]
17 | < 250 nM | CN1C(C)(C)CC(Nc2nc(Nc3ccc(-c4cccnc4)c(OC(F)F)c3)ncc2F)CC1(C)C [Compound I-64, N2-(3-(difluoromethoxy)-4-(pyridin-3-yl)phenyl)-5-fluoro-N4-(1,2,2,6,6-pentamethylpiperidin-4-yl)pyrimidine-2,4-diamine]
18 | < 250 nM | Cc1nnnn1-c1cc(Nc2ncc(F)c(NC3CC(C)(C)N(C)C(C)(C)C3)n2)ccc1OC(F)(F)F [Compound I-20, 5-fluoro-N2-(3-(5-methyl-1H-tetrazol-1-yl)-4-(trifluoromethoxy)phenyl)-N4-(1,2,2,6,6-pentamethylpiperidin-4-yl)pyrimidine-2,4-diamine]
19 | > 1000 nM | CC1(C)CC(Nc2nc(Nc3ccc(OC4CCS(=O)(=O)CC4)c(OC(F)F)c3)ncc2F)CC(C)(C)N1 [III-32, N2-[3-Difluoromethoxy-4-(1,1-dioxo-hexahydro-1λ6-thiopyran-4-yloxy)-phenyl]-5-fluoro-N4-(2,2,6,6-tetramethyl-piperidin-4-yl)-pyrimidine-2,4-diamine]
20 | 500 to 1000 nM | CC1(C)CC(Nc2nc(Nc3ccc(OCCn4ccnn4)c(OC(F)F)c3)ncc2F)CC(C)(C)N1 [Compound I-24, N2-(4-(2-(1H-1,2,3-triazol-1-yl)ethoxy)-3-(difluoromethoxy)phenyl)-5-fluoro-N4-(2,2,6,6-tetramethylpiperidin-4-yl)pyrimidine-2,4-diamine]
21 | > 1000 nM | CCOc1ccc(Nc2ncc(F)c(NC3CC(C)(C)N(C)C(C)(C)C3)n2)cc1-n1c(C)ccc1C [Compound I-13, N2-(4-ethoxy-3-(2,5-dimethyl-1H-pyrrol-1-yl)phenyl)-5-fluoro-N4-(1,2,2,6,6-pentamethylpiperidin-4-yl)pyrimidine-2,4-diamine]
22 | < 250 nM | CN1C(C)(C)CC(Nc2nc(Nc3cc(F)c(F)c(-c4nnnn4C)c3)ncc2F)CC1(C)C [III-137, N2-(3,4-difluoro-5-(1-methyl-1H-tetrazol-5-yl)phenyl)-5-fluoro-N4-(1,2,2,6,6-pentamethylpiperidin-4-yl)pyrimidine-2,4-diamine]
23 | < 250 nM | CN1C(C)(C)CC(Nc2nc(Nc3cc(C4CC4)cc(-n4cnnn4)c3)ncc2F)CC1(C)C [III-117, N^2-(3-cyclopropyl-5-(1H-tetrazol-1-yl)phenyl)-5-fluoro-N^4(1,2,2,6,6-pentamethylpiperidin-4-yl)pyrimidine-2,4-diamine]
24 | 500 to 1000 nM | CC(=O)N1CCCC(Oc2c(F)cc(Nc3ncc(F)c(NC4CC(C)(C)N(C)C(C)(C)C4)n3)cc2F)CC1 (stereo not drawn) [III-81, 1-(4-(2,6-difluoro-4-(5-fluoro-4-(1,2,2,6,6-pentamethylpiperidin-4-ylamino)pyrimidin-2-ylamino)phenoxy)azepan-1-yl)ethanone]
25 | 250 to 500 nM | Cc1ccc(C)n1-c1cc(Nc2ncc(F)c(NC3CC(C)(C)N(C)C(C)(C)C3)n2)ccc1OC(F)F [Compound I-4, N2-(4-(difluoromethoxy)-3-(2,5-dimethyl-1H-pyrrol-1-yl)phenyl)-5-fluoro-N4-(1,2,2,6,6-pentamethylpiperidin-4-yl)pyrimidine-2,4-diamine]
26 | 500 to 1000 nM | CN1C(C)(C)CC(Nc2nc(Nc3cccc(-n4cncn4)c3)ncc2F)CC1(C)C [Compound I-12, N2-(3-(1H-1,2,4-triazol-1-yl)phenyl)-5-fluoro-N4-(1,2,2,6,6-pentamethylpiperidin-4-yl)pyrimidine-2,4-diamine]
27 | < 250 nM | CN1C(C)(C)CC(Nc2nc(Nc3ccc(OC4CCN(CCO)CC4)c(OC(F)F)c3)ncc2F)CC1(C)C [III-37, 2-(4-(2-(Difluoromethoxy)-4-(5-fluoro-4-(1,2,2,6,6-pentamethylpiperidin-4-ylamino)pyrimidin-2-ylamino)phenoxy)piperidin-1-yl)ethanol]
28 | 250 to 500 nM | CSc1nnnn1-c1cccc(Nc2ncc(F)c(NC3CC(C)N(C4CC4)C(C)C3)n2)c1 (stereo not drawn) [III-10, N^4-(1-cyclopropyl-2,6-dimethylpiperidin-4-yl)-5-fluoro-N2-(3-(5-(methylthio)-1H-tetrazol-1-yl)phenyl)pyrimidine-2,4-diamine]

same assay, conditions: human primary T cells stimulated with anti-CD3 + anti-CD28, 24 hours

Row | IC50 | Structure (SMILES)
29 | > 1000 nM | CCOc1ccc(Nc2ncc(C(N)=O)c(NC3CC(C)(C)NC(C)(C)C3)n2)cc1-n1nnnc1CC [Compound I-68, 5-aminocarbonyl-N2-[4-ethoxy-3-(5-ethyl-1H-tetrazol-1-yl)]phenyl-N4-(2,2,6,6-tetramethylpiperidin-4-yl)-2,4-pyrimidinediamine]
30 | 250 to 500 nM | CC1(C)CC(Nc2nc(Nc3ccc(F)c(-n4cnnn4)c3)ncc2C#N)CC(C)(C)N1 [Compound I-77, 5-cyano-N2-[4-fluoro-3-(1H-tetrazol-1-yl)]phenyl-N4-(2,2,6,6-tetramethylpiperidin-4-yl)-2,4-pyrimidinediamine]
